Experimental data as given in patent publication US10098878B2, “HIF-2α inhibitors for treating iron overload disorders” (The Board of Regents of the University of Texas System, priority 2014, dated 2018).
Like-named read-outs stand apart in the source and are kept apart here.

Key:
[1] = tested on: 786-0 cells; experiment: VEGF ELISA Assay; format: cell-based; conditions: Homo sapiens, VEGFA concentration in cell culture medium, read-out: VEGF ELISA EC50
Method: Each concentration had duplicated wells. About 20 hours later, medium was removed by suction and each well was supplied with 180 μL of growth medium. About 20 μl freshly-made 10× compound stocks were added to each well. […] The EC50 was calculated by GraphPad Prism using the dose-response-inhibition (four parameter) equation. The cell seeded plate was then subjected to CellTiter-Glo luminescence cell viability assay (Promega) by adding 50 μL of Celltiter Glo reagent into each well and shaking the plate for 8 minutes at 550 rpm (Thermomixer R, Eppendorf) then read luminescence signal in plate reader (3 second delay, 0.5 second/well integration time, Synergy 2 multi Detection Microplate reader) immediately.

[2] = tested on: 786-O-Hif-Luc cells; experiment: Luciferase Assay; format: cell-based; conditions: 786-O-Hif-Luc cells, about 24 hours, read-out: Luciferase EC50
Method: A pool of infected cells were then selected against 2 μg/mL of puromycin (P8833, Sigma) for 10 days followed by limited dilution to select single clones.
Each concentration was tested in triplicate. After about 24 hours, luciferase activity was determined using ONE-Glo Luciferase Assay Reagent (E6110, Promega) following the manufacturer's recommended procedure. EC50 were calculated by using Dotmatics software.

[3] = target: T1, HIF-2α HIS TAG-PASB Domain (Homo sapiens, UniProt Q99814); experiment: HIF-2α Scintillation Proximity Assay (SPA); format: binding; conditions: 100 nM HIF-2α HIS TAG-PASB Domain
T1 construct: 100 nM HIF-2α HIS TAG-PASB Domain
Summary of the method: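 IC50 values rest on percent inhibition, where the sample signal is scaled between high and low controls. Wells contain about 100 μL: compound dispensed as 2 μL of DMSO solution, 88 μL protein-probe mix and 10 μL of beads.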

[4] = 150 nM Compound 211 probe, read-out: SPA IC50
[5] = SPA IC50, 150 nM Compound 211 probe

T1 sequence (Q99814 240-350 limits assumed): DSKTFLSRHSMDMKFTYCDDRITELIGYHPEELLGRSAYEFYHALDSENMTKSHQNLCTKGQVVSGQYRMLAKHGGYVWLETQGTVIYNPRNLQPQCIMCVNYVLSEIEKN

EC50 ([1]; 786-0, 786-0 cells) [µM] | EC50 ([2]; 24 h) [µM] | IC50 [3, 4] [µM] | SMILES | EC50 ([1]; 786-0 cells) [µM] | EC50 [2] [µM] | IC50 [3, 5] [µM]
0.095 | 0.088 | 0.047 | CS(=O)(=O)c1ccc(Oc2cncc(C#N)c2)c2c1[C@H](O)C(F)(F)[C@@H]2F [Compound 106, 5-(((1S,3R)-2,2,3-trifluoro-1-hydroxy-7-(methylsulfonyl)-2,3-dihydro-1H-inden-4-yl)oxy)nicotinonitrile] |  |  | 
0.123 | 0.042 | 0.0067 | N#Cc1cncc(Oc2ccc(S(=O)(=O)CF)c3c2[C@@H](F)C(F)(F)[C@H]3O)c1 [Compound 108, 5-(((1S,3R)-2,2,3-trifluoro-7-((fluoromethyl)sulfonyl)-1-hydroxy-2,3-dihydro-1H-inden-4-yl)oxy)nicotinonitrile] |  |  | 
 |  |  | O=S1(=O)c2ccc(Oc3cc(F)cc(Cl)c3)c(C(F)(F)F)c2C(O)C1(F)F (stereo not drawn) [Compound 124, 5-(3-Chloro-5-fluorophenoxy)-2,2-difluoro-3-hydroxy-4-(trifluoromethyl)-2,3-dihydrobenzo[b]thiophene 1,1-dioxide] | 0.089 | 0.075 | < 0.005
 |  |  | O=S1(=O)c2ccc(Oc3cc(F)cc(Cl)c3)c(C(F)F)c2C(O)C1(F)F (stereo not drawn) [Compound 128, 5-(3-Chloro-5-fluorophenoxy)-4-(difluoromethyl)-2,2-difluoro-3-hydroxy-2,3-dihydrobenzo[b]thiophene 1,1-dioxide] | 0.029 | 0.017 | < 0.005
0.087 | 0.068 | < 0.005 | NC1c2c(ccc(Oc3cc(F)cc(F)c3)c2C(F)F)S(=O)(=O)C1(F)F (stereo not drawn) [Compound 129, 3-Amino-4-(difluoromethyl)-5-(3,5-difluorophenoxy)-2,2-difluoro-2,3-dihydrobenzo[b]thiophene 1,1-dioxide] |  |  | 
 |  |  | O=S1(=O)c2ccc(Oc3cc(F)cc(Cl)c3)c(Br)c2[C@@H](O)C1(F)F [Compound 167, (3R)-4-Bromo-5-(3-chloro-5-fluoro-phenoxy)-2,2-difluoro-1,1-dioxo-3H-benzothiophen-3-ol] | 0.045 | 0.037 | < 0.005
0.178 | 0.098 | 0.124 | O=S1(=O)c2ccc(Oc3cncc(Cl)c3)c(Br)c2[C@@H](O)C1(F)F [Compound 185, (R)-4-bromo-5-((5-chloropyridin-3-yl)oxy)-2,2-difluoro-3-hydroxy-2,3-dihydrobenzo[b]thiophene 1,1-dioxide] |  |  | 
0.327 | 0.096 | 0.116 | N#Cc1cncc(Oc2ccc3c(c2Br)[C@@H](O)C(F)(F)S3(=O)=O)c1 [Compound 188, (R)-5-((4-Bromo-2,2-difluoro-3-hydroxy-1,1-dioxido-2,3-dihydrobenzo[b]thiophen-5-yl)oxy)nicotinonitrile] |  |  | 
0.077 | 0.047 | 0.011 | N#Cc1cc(F)cc(Oc2ccc3c(c2Cl)[C@@H](O)C(F)(F)S3(=O)=O)c1 [Compound 195, (R)-3-((4-chloro-2,2-difluoro-3-hydroxy-1,1-dioxido-2,3-dihydrobenzo[b]thiophen-5-yl)oxy)-5-fluorobenzonitrile] |  |  | 
0.018 | 0.022 | 0.041 | CC1(O)c2c(ccc(Oc3cc(F)cc(F)c3)c2C#N)S(=O)(=O)C1(F)F (stereo not drawn) [Compound 210, 5-(3,5-Difluorophenoxy)-2,2-difluoro-3-hydroxy-3-methyl-2,3-dihydrobenzo[b]thiophene-4-carbonitrile 1,1-dioxide] |  |  | 

SMILES | EC50 ([1]; 786-0, 786-0 cells) [µM] | EC50 ([2]; 24 h) [µM] | IC50 [3, 4] [µM] | EC50 ([1]; 786-0 cells) [µM] | EC50 [2] [µM] | IC50 [3, 5] [µM]
N#Cc1cc(F)cc(Oc2ccc3c(c2Br)[C@@H](O)C(F)(F)S3(=O)=O)c1 [Compound 111, (R)-3-((4-bromo-2,2-difluoro-3-hydroxy-1,1-dioxido-2,3-dihydrobenzo[b]thiophen-5-yl)oxy)-5-fluorobenzonitrile] |  |  | 0.0072 | 0.064 | 0.023 | 
N#Cc1c(Oc2cc(F)cc(Cl)c2)ccc2c1C(O)CS2(=O)=O (stereo not drawn) [Compound 117, 5-(3-chloro-5-fluorophenoxy)-3-hydroxy-2,3-dihydrobenzo[b]thiophene-4-carbonitrile 1,1-dioxide] |  |  | 0.061 | 0.333 | 0.451 | 
N#Cc1cc(F)cc(Oc2ccc3c(c2C(F)F)C(N)C(F)(F)S3(=O)=O)c1 (stereo not drawn) [Compound 136, 3-((3-Amino-4-(difluoromethyl)-2,2-difluoro-1,1-dioxido-2,3-dihydrobenzo[b]thiophen-5-yl)oxy)-5-fluorobenzonitrile] |  |  | < 0.005 | 0.2 | 0.11 | 
N#Cc1cc(F)cc(Oc2ccc3c(c2C(F)F)[C@@H](N)C(F)(F)S3(=O)=O)c1 [Compound 151, (R)-3-((3-Amino-4-(difluoromethyl)-2,2-difluoro-1,1-dioxido-2,3-dihydrobenzo[b]thiophen-5-yl)oxy)-5-fluorobenzonitrile] |  |  | 0.069 | 0.68 | 0.139 | 
